Experimental data: article PMC3933693, “Novel Inhibitors of Mitochondrial sn-Glycerol 3-phosphate Dehydrogenase” (PLoS ONE, 2014)

Key:
[1] = biological target: T1, mGPDH (Rattus norvegicus, UniProt P35571); test: Superoxide/H2O2 production by mGPDH in isolated skeletal muscle mitochondria (Amplex UltraRed); type: biochemical; conditions: for mGPDH (% change from DMSO): primary screen, ∼2.5 µM, average of duplicates, 16.7 mM glycerol phosphate, no added calcium
T1 construct: Activity of mGPDH in frozen-thawed skeletal muscle mitochondria was measured; from tissue; host or cells: skeletal muscle mitochondria
T1 sequence (P35571 43-727): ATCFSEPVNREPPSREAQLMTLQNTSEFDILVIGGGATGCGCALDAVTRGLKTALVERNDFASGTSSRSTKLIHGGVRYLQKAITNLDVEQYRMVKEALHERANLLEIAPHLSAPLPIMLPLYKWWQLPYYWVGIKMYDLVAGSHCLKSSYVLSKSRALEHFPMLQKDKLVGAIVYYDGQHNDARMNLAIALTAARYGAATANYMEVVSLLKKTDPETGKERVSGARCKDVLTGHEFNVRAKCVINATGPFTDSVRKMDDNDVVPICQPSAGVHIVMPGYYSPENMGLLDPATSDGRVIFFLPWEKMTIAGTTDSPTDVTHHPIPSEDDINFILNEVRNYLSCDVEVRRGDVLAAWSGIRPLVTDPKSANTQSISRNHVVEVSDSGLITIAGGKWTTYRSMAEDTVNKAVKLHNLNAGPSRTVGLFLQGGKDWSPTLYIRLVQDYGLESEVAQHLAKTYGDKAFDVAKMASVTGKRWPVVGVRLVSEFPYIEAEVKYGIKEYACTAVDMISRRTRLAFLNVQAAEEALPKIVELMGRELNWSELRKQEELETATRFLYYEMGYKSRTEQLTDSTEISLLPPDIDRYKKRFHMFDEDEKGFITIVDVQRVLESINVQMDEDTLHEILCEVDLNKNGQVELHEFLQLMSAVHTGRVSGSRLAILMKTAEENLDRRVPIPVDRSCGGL

[2] = tested on: flavin mononucleotide site of complex I (site IF) plus matrix NAD-linked dehydrogenases (site IF/DH); test: Site-specific H2O2 production from site IF/DH in skeletal muscle mitochondria; type: biochemical, rat; conditions: primary screen, ∼2.5 µM, average of duplicates
Method: (§1) Superoxide was measured as H2O2 after dismutation by endogenous or exogenous superoxide dismutase. Rates of total superoxide/H2O2 production were measured fluorimetrically using Amplex UltraRed in the presence of exogenous superoxide dismutase and horseradish peroxidase in a Varian Cary Eclipse fluorimeter as previously described. Rates of production from specific sites were determined as previously described using the following eight conditions: flavin mononucleotide site of complex I (site IF) plus matrix NAD-linked dehydrogenases (collectively "site IF/DH") with 5 mM glutamate, 5 mM malate, and 4 µM rotenone; ubiquinone-binding site of complex I (site IQ) with either 0.5 or 5 mM succinate; flavin site of complex II (site IIF) with either 15 µM palmitoylcarnitine, 2.5 µM antimycin A, and 2 µM myxothiazol or 0.5 mM succinate, 4 µM rotenone, 2.5 µM antimycin A, and 2 µM myxothiazol, [31]; mGPDH with 1.7 mM glycerol phosphate, 4 µM rotenone, 2.5 µM antimycin A, 2 µM myxothiazol, 1 mM malonate, and 250 nM free calcium; outer ubiquinone-binding site of complex III (site IIIQo) with either 0.5 or 5 mM succinate, 4 µM rotenone and 2.5 µM antimycin A [32]. Candidate small-molecule inhibitors were added prior to the start of measurements and H2O2 calibration curves were performed in the presence of tested compounds.
(§2) 3,200 compounds were tested initially at 2.5 µM (0.025% DMSO final) in duplicate on different plates against a panel of five distinct assays of site-specific superoxide/H2O2 production as described in the previous section with minor changes. […] Endpoint fluorescence was measured on a Perkin Elmer Victor V3 fluorescent plate reader. The fluorescence intensity of each well was normalized as % change from the average of eight DMSO controls on the same plate. Duplicate wells of each of four modulators of mitochondrial metabolism known to inhibit specific sites of superoxide/H2O2 production were included on each plate as positive controls and the resulting fluorescence levels set as −100% change from DMSO controls. Known inhibitors included 20 mM aspartate (for site IF/DH), 1 µM FCCP (for site IQ), 10 mM malonate (for site IIF), and 2 µM myxothiazol (for site IIIQo). The background fluorescence of the FCCP wells in the site IQ assay was used to normalize mGPDH plates run in parallel. To minimize position-dependent effects across each assay plate, Tukey’s two-way median polish was applied to fluorescence values after initial normalization, [36]. Tukey’s polish is an iterative subtraction of the median row and column values from each well’s given row or column. The procedure is repeated until sequential medians for each row and column are zero and positional gradients in fluorescence are eliminated.

[3] = tested on: skeletal muscle mitochondria; test: Mitochondrial membrane potential (ΔΨm, TMRM) powered by glutamate plus malate; type: biochemical, rat; conditions: primary screen, ∼2.5 µM, average of duplicates; glutamate and malate
Method: Mitochondrial membrane potential (ΔΨm) was estimated fluorimetrically as described previously [33] on the Varian fluorimeter, except the potentiometric dye TMRM was used in quench-mode in place of safranine O [34]. […] The effect of putative small-molecule inhibitors was normalized as the % change in fluorescence between vehicle treatment and complete depolarization by the uncoupler carbonyl cyanide-4-(trifluoromethoxy)phenylhydrazone (FCCP, 2 µM) added at the end of each run. When indicated, the K^+/H^+ exchanger nigericin (80 ng ⋅ ml^−1) was added to collapse the pH gradient across the mitochondrial inner membrane (ΔpH) and maximize ΔΨm.
All assays were performed with stirring at 37°C.
Additionally, four microplate assays for ΔΨm were run in parallel to the H2O2 assays. These assays were as described under “Measurement of mitochondrial H2O2 production and membrane potential” except that each substrate condition was assayed in a separate microplate. […] Plates were incubated in the dark at room temperature for 30–40 min (H2O2) or 10–15 min (ΔΨm) after the addition of substrate, and endpoint fluorescence was measured on the Victor plate reader. […] Endpoints for the ΔΨm assays were determined in pilot experiments as the times for TMRM accumulation to reach a steady state. At room temperature, this was typically ∼ 5 min and remained stable for at least 30 min. Endpoint fluorescence values were normalized as described in the previous section with wells containing FCCP serving as positive controls for the ΔΨm assays.

[4] = tested on: ubiquinone-binding site of complex I (site IQ); test: Site-specific H2O2 production from site IQ in skeletal muscle mitochondria; type: biochemical, rat; conditions: primary screen, ∼2.5 µM, average of duplicates; 5 mM succinate;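 further: H2O2 from superoxide detected by Amplex UltraRed fluorescence with added superoxide dismutase and horseradish peroxidase, endpoint read 30–40 min after substrate addition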
[5] = biological target: T2, outer ubiquinone-binding site of complex III (site IIIQo) (Rattus norvegicus, UniProt P00159+P20788); test: Site-specific H2O2 production from site IIIQo in skeletal muscle mitochondria; type: biochemical; conditions: primary screen, ∼2.5 µM, average of duplicates; 5 mM succinate
T2 construct: from tissue; host or cells: skeletal muscle mitochondria
Method: as §1, §2

[6] = biological target: T3, flavin site of complex II (site IIF) (Rattus norvegicus, UniProt Q920L2); test: Site-specific H2O2 production from site IIF in skeletal muscle mitochondria; type: biochemical; conditions: primary screen, ∼2.5 µM, average of duplicates; palmitoylcarnitine
T3 construct: from tissue; host or cells: skeletal muscle mitochondria
Method: as §1, §2

T3 sequence (Q920L2 35-656): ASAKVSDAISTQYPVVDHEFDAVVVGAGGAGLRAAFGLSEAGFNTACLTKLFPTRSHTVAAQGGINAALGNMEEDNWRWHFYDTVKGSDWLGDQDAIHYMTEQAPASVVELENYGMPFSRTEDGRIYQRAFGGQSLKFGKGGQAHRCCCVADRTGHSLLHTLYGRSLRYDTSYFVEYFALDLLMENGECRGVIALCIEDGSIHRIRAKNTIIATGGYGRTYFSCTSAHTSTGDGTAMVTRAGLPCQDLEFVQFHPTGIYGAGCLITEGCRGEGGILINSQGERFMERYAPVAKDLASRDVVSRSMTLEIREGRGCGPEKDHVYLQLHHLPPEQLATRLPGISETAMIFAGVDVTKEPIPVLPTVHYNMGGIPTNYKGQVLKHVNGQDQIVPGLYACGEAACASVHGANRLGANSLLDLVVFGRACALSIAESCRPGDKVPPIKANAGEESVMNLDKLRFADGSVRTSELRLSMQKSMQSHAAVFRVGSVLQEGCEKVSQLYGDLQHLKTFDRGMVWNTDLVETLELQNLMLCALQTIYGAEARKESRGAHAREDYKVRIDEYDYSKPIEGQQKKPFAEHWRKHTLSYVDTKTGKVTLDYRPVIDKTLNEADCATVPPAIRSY
T3 sequence (P21913 31-282 partner): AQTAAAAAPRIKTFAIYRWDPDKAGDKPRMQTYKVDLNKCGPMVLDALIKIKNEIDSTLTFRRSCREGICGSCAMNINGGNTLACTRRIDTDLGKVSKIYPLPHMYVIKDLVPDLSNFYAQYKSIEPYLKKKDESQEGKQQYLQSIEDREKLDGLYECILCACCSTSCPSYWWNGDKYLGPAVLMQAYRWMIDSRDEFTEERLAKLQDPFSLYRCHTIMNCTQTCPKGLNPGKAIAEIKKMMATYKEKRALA
T3 sequence (Q641Z9 30-169 partner limits assumed): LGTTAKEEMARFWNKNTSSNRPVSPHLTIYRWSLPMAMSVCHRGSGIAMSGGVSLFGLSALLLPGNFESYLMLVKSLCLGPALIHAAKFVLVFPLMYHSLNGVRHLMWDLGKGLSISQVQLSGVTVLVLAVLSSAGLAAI
T3 sequence (Q6PCT8 57-159 partner): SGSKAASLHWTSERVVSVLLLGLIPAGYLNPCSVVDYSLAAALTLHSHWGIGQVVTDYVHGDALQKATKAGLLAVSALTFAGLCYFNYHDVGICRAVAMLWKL

SMILES | mGPDH (% change from DMSO) [1] [%] | IF/DH (% change from DMSO) [2] [%] | ΔΨm (% change from DMSO) [3] [%] | IQ (% change from DMSO) [4] [%] | IIIQo (% change from DMSO) [5] [%] | IIF (% change from DMSO) [6] [%] | effect on the rate of H2O2 production from mGPDH ([1]; compared with glyceraldehyde 3-phosphate, Fig. 2A)
COc1cc(CN2CCOCC2)ccc1O [compound 5423875] | -11.3 | -12.7 | 0.5 | -20.0 | -15.0 |  | 
NC(=O)Cc1c[nH]c2cccc(O)c12 [compound 5106694] | -32.1 | -39.7 | 0.127 | -49.2 | -48.1 | -58.5 | 
Nc1ccc(-c2nc3ccc(N)cc3[nH]2)cc1 [compound 5137121] | -72.6 | -89.7 | 1.1 | -61.6 | -73.9 | -106.6 | 
CC1=Nc2c([nH]c3ccccc23)-c2cc(C)ccc2N1.Cl [compound 5219818] | -31.6 | -40.2 | -0.5 | -50.1 | -36.6 | -51.0 | 
Nc1cc(C(=O)O)c(N)cc1C(=O)O [compound 5180162] | -10.8 | -5.6 | -0.24 | -6.3 | -3.2 | -10.7 | 
CCCCSc1nnc2c(n1)[nH]c1ccc(C)cc12 [compound 5225633] | -10.0 | 16.4 | 1.1 | -2.4 | -13.3 | -0.9 | 
Nc1ccccc1S(=O)(=O)Nc1cccc2cccnc12 [compound 5175136] | -16.1 | -42.5 | 0.113 | -18.9 | 9.1 | -14.5 | 
O=C(Cc1ccccc1)Nc1cc(C(=O)O)c(NC(=O)Cc2ccccc2)cc1C(=O)O [compound 5181020] | -31.6 | -40.9 | 0.05 | -35.6 | -32.7 | -39.7 | 
COc1ccc(NCCNc2ccc(OC)cc2)cc1 [compound 5174308] | -37.5 | -73.0 | 0.352 | -49.0 | -30.1 | -50.8 | 
Cc1ccc(S(=O)(=O)c2cc(O)ccc2O)cc1C [compound 5210729] | -21.9 | -32.6 | -0.6 | -40.9 | -50.4 | -53.2 | 
O=C(Nc1ccc(O)cc1)c1ccco1 [compound 5471987] | -26.4 | -52.3 | 0.0125 | -9.9 | -8.4 | -28.0 | 
COc1ccc(O)c(CN2CCC(N3CCCCC3)CC2)c1 [compound 5410291] | -18.0 | -15.5 | -0.0836 | -18.2 | -19.0 |  | 
Cn1c(/C=C/c2ccc(Cl)cc2)nc2ccccc21 [compound 5663561] | -12.9 | -9.1 | 0.0494 | -3.9 | -4.7 | -11.9 | 
Cc1nc2ccc(Cl)cc2c2c(N)c3ccccc3n12 [compound 5219795] | -23.3 | -30.5 | 0.6 | -14.8 | -23.3 | -49.0 | 
CCN1CCN(C/C=C/c2ccc(N(C)C)cc2)CC1 [compound 5424907] | -13.4 | -6.5 | 0.00666 | -2.9 | -5.7 |  | 
CC1(C)CC(=O)C2=C(C1)Nc1cc(Cl)ccc1S2 [compound 5219661] | -22.7 | -91.8 | -1.8 | -52.0 | -20.2 | -32.9 | 
CC(=O)N(C)c1ccc(NC(=O)c2ccc(-c3ccccc3)cc2)cc1 [compound 5191683] | -10.7 | -3.4 | 0.5 | -6.3 | -9.7 | -1.2 | 
COc1ccc(NCC2CCCCC2)cc1 [compound 5454631] | -20.6 | -52.2 | -0.00487 | -40.9 | -14.3 | -25.6 | 
CN(C)c1nc2ccc(O)cc2s1 [compound 5195231] | -68.8 | -166.4 | 0.4 | -66.7 | -41.2 | -110.1 | 
COc1ccc(CNc2cccc(N(C)C)c2)cc1 [compound 5452512] | -29.7 | -33.7 | 0.0119 | -34.0 | -33.8 | -24.5 | 
Cc1ccc(S(=O)(=O)CCC#N)cc1C [compound 5210670] | -12.4 | -4.6 | -0.074 | 0.4 | -15.9 | -0.354 | 
O=C(CO)COP(=O)(O)O [DHAP, dihydroxyacetone phosphate, reference compound] |  |  |  |  |  |  | less effective
